Assay results taken from the NIST ThermoML archive (doi:10.1021/je500211w).

Assay: xn = mol fraction of the nth substance listed
Conditions: 101 kPa, Liquid, NMR spin-echo technique

## OCC(F)(F)F [2,2,2-trifluoroethanol] + O
283.2 K, x1 = 0.000511
  binary diffusion coefficient: 7.32e-10 m2/s
283.2 K, x1 = 0.001034
  binary diffusion coefficient: 7.18e-10 m2/s
283.2 K, x1 = 0.004989
  binary diffusion coefficient: 6.91e-10 m2/s
283.2 K, x1 = 0.009331
  binary diffusion coefficient: 6.69e-10 m2/s
283.2 K, x1 = 0.01008
  binary diffusion coefficient: 6.68e-10 m2/s
283.2 K, x1 = 0.04965
  binary diffusion coefficient: 4.57e-10 m2/s
288.2 K, x1 = 0.000511
  binary diffusion coefficient: 8.43e-10 m2/s
288.2 K, x1 = 0.001034
  binary diffusion coefficient: 8.44e-10 m2/s
288.2 K, x1 = 0.004989
  binary diffusion coefficient: 8.01e-10 m2/s
288.2 K, x1 = 0.009331
  binary diffusion coefficient: 7.62e-10 m2/s
288.2 K, x1 = 0.01008
  binary diffusion coefficient: 7.87e-10 m2/s
288.2 K, x1 = 0.04965
  binary diffusion coefficient: 5.52e-10 m2/s
293.2 K, x1 = 0.000511
  binary diffusion coefficient: 1.02e-09 m2/s
293.2 K, x1 = 0.001034
  binary diffusion coefficient: 9.98e-10 m2/s
293.2 K, x1 = 0.004989
  binary diffusion coefficient: 9.67e-10 m2/s
293.2 K, x1 = 0.009331
  binary diffusion coefficient: 9.35e-10 m2/s
293.2 K, x1 = 0.01008
  binary diffusion coefficient: 8.96e-10 m2/s
293.2 K, x1 = 0.04965
  binary diffusion coefficient: 7.24e-10 m2/s
298.2 K, x1 = 0.000511
  binary diffusion coefficient: 1.13e-09 m2/s
298.2 K, x1 = 0.001034
  binary diffusion coefficient: 1.11e-09 m2/s
298.2 K, x1 = 0.004989
  binary diffusion coefficient: 1.1e-09 m2/s
298.2 K, x1 = 0.009331
  binary diffusion coefficient: 1.1e-09 m2/s
298.2 K, x1 = 0.01008
  binary diffusion coefficient: 1.06e-09 m2/s
298.2 K, x1 = 0.04965
  binary diffusion coefficient: 8.51e-10 m2/s
303.2 K, x1 = 0.000511
  binary diffusion coefficient: 1.28e-09 m2/s
303.2 K, x1 = 0.001034
  binary diffusion coefficient: 1.27e-09 m2/s
303.2 K, x1 = 0.004989
  binary diffusion coefficient: 1.23e-09 m2/s
303.2 K, x1 = 0.009331
  binary diffusion coefficient: 1.2e-09 m2/s
303.2 K, x1 = 0.01008
  binary diffusion coefficient: 1.23e-09 m2/s
303.2 K, x1 = 0.04965
  binary diffusion coefficient: 9.71e-10 m2/s
308.2 K, x1 = 0.000511
  binary diffusion coefficient: 1.44e-09 m2/s
308.2 K, x1 = 0.001034
  binary diffusion coefficient: 1.46e-09 m2/s
308.2 K, x1 = 0.004989
  binary diffusion coefficient: 1.41e-09 m2/s
308.2 K, x1 = 0.009331
  binary diffusion coefficient: 1.36e-09 m2/s
308.2 K, x1 = 0.01008
  binary diffusion coefficient: 1.37e-09 m2/s
308.2 K, x1 = 0.04965
  binary diffusion coefficient: 1.1e-09 m2/s
313.2 K, x1 = 0.000511
  binary diffusion coefficient: 1.71e-09 m2/s
313.2 K, x1 = 0.001034
  binary diffusion coefficient: 1.71e-09 m2/s
313.2 K, x1 = 0.004989
  binary diffusion coefficient: 1.66e-09 m2/s
313.2 K, x1 = 0.009331
  binary diffusion coefficient: 1.57e-09 m2/s
313.2 K, x1 = 0.01008
  binary diffusion coefficient: 1.57e-09 m2/s
313.2 K, x1 = 0.04965
  binary diffusion coefficient: 1.28e-09 m2/s
